From publication doi:10.1101/2025.03.31.646301v1, “Discovery of Tankyrase scaffolding inhibitor specifically targeting the ARC4 peptide binding domain” (biorxiv, 2025)
Like-named read-outs stand apart in the source and are kept apart here.

Key:
TNKS2 ARC4 [1] = molecular target: T1, TNKS2 ARC4 (Homo sapiens, UniProt Q9H2K2); test: biochemical; set-up: FRET competition: inhibition of CFP-ARC domain binding to YFP-REAGDGEE peptide
T1 construct: ankyrin repeat cluster 4 domain; FRET: 6xHis-mCerulean (CFP) fusion; DSF, NMR, crystal: MBP and His tag cleaved by TEV, residues 487-649 printed for crystal; E. coli BL21(DE3)
T1 sequence (Q9H2K2 487-649): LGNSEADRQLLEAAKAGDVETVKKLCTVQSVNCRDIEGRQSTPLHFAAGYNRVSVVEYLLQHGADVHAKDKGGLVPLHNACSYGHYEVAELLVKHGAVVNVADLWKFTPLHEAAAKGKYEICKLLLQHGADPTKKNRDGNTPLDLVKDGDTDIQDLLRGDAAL
Protocol: The FRET assay for discovery of chemical probes targeting ARC and SAM domains of tankyrases was developed in a previous study.[52] The high-throughput screening of the EU-OPENSCREEN Pilot and Commercials Diversity libraries was performed at the Norwegian Centre for Molecular Biosciences and Medicine (NCMBM, formerly NCMM). For the primary screen, assay-ready plates containing library compound sufficient to reach a screening concentration of 30 µM were prepared on black shallow-well 384-microwell plates (Greiner bio-one small volume, high base, non-binding microplate black, 784900 or Fisherbrand™ 384-Well ShallowWell Polypropylene Microplates, 12-566-617, Fisher Scientific) using 30 nL of 10 mM DMSO compound stocks dispensed with an Echo 550 [compound left out] handler (Labcyte). Each screening plate also contained DMSO controls at equivalent volumes to compounds for positive, negative, and assay buffer blank controls, 16 wells per control type. Stock solutions of CFP-TNKS2 ARC4 and YFP-REAGDGEE or CFP-SAM(E897K) and YFP-SAM(Y920A) were combined and diluted in assay buffer (10 mM BTP pH 7, 3% weight/volume PEG 20000, 0.01% volume/volume Triton, 0.5 mM TCEP) to final concentrations of 100 nM and 200 nM or 150 and 300 nM, respectively. The positive control was prepared by addition of guanidine hydrochloride to the above assay buffer to a final concentration of 1M. A volume of 10 µL of these solutions was added to each well of the assay-ready plates using a BioTek MultiFlo FX dispenser (Agilent) equipped with 5 uL dispensing cassettes for the peristaltic pumps (screening solution and control) and a syringe pump (assay buffer blank). After [compound left out] handling, plates were incubated at RT for 30 minutes before reading fluorescence using a BioTek Synergy Neo2 plate reader (Agilent) with Gen5 software (version 3.02) at four wavelength combinations – 410/477, 410/527, 430/477, 430/527 – each with an excitation bandwidth of 20 nm and an emission bandwidth of 10 nm; a gain setting of 135; a “Normal” read speed with 10 msec delay after plate movement, 50 measurements per data point, low lamp energy, and a “Standard” dynamic range (0 to 99,999); and a read height of 4.5 mm. A SAR investigation was conducted with purchased and synthesized analogues of 1 through FRET-based potency measurements and DSF assay with TNKS2 ARC4 (Table 2, Table S2). All the compounds commercially acquired underwent quality control. […] Changes to the length of the aliphatic chain at R[3] greatly impacts both potency and protein stabilization. […] The diethylamino-based substituent at R[3] […] Compounds 25 and 26 further indicate that the presence of tertiary amine at R[3] is not necessary to achieve binding.

TNKS2 ARC4 [2] = molecular target: T1, TNKS2 ARC4; set-up: DSF thermal shift of TNKS2 ARC4, stabilization over DMSO control; conditions: binder
Text: Given the notable stabilization of the pyrrolone-based compounds from the Commercials Diversity collection, we decided to focus on their common scaffold for compound optimization. Pyrrolone is indeed a versatile moiety that is largely employed for the design of compounds with a variety of biological effects.[55] The nine primary hits were acquired from commercial suppliers, they underwent quality control, additional DSF validation and determination of potency through FRET-based IC50 measurements (Table 1). All the tested compounds include a benzodioxane moiety (R[1]), a [compound left out] group with substitutions in the para position (R[2]), and an R[3] group with an aliphatic character and a tertiary amine. […] In addition, all molecules, except for 7, have IC50 values below 100 µM. Among the nine molecules, 1 performed the best in terms of stabilization of TNKS2 ARC4 and potency. […] In the same position, the presence of a hydrophobic methyl group (3, 4), other halogen substituents (5) and alkoxy groups (6–9) is also tolerated, even if not optimal. […] A SAR investigation was conducted with purchased and synthesized analogues of 1 through FRET-based potency measurements and DSF assay with TNKS2 ARC4 (Table 2, Table S2). All the compounds commercially acquired underwent quality control. […] Changes to the length of the aliphatic chain at R[3] greatly impacts both potency and protein stabilization. […] The diethylamino-based substituent at R[3] […] Compounds 25 and 26 further indicate that the presence of tertiary amine at R[3] is not necessary to achieve binding. […] 5 Figure S2. DSF assay results for validation of primary hits identified in the EU-OPENSCREEN Commercials Diversity Library. (A) and (B) show DSF assay validation measurements of TNKS2 ARC4 with primary hits from the Commercial Diversity Library. Compounds are tested at 100 μM. They are named after their EU-OPENSCREEN identity codes and the identities are available for consultation on ECBD. 1,2 (A) and (B) show results from two independent experiments. For each experiment, each compound was tested with a single measurement, while controls (TNKS2 ARC4 with 100 μM optimized peptide, TNKS2 ARC4 with 100 μM DMSO) are studied in at least four replicates and errors are shown. Moreover, stabilization over the control (TNKS2 ARC4 with DMSO) is indicated (ΔTm °C). […] It was not possible to measure the melting curve of TNKS2 ARC4 in presence of EOS21552, EOS54043, EOS54043.

Cc1ccccc1COc1ccc(C(=O)C2=C(O)C(=O)N(CCCN(C)C)C2c2cccc(O)c2)cc1 (centres unmarked) [compound 28, 28]
IC50 (TNKS2 ARC4 [1]; inhibitor): > 1000 µM | ΔTm ± SD (°C) (TNKS2 ARC4 [2]): -0.20 ± 0.22 °C

COc1ccc(C(=O)C2=C(O)C(=O)N(CCCN3CCOCC3)C2c2ccccc2)cc1OC (centres unmarked) [compound 29, 29]
IC50 (TNKS2 ARC4 [1]): > 1000 µM | ΔTm ± SD (°C) (TNKS2 ARC4 [2]): 0.14 ± 0.25 °C

CN(C)CCCN1C(=O)C(O)=C(C(=O)c2ccc3c(c2)oc(=O)n3C)C1c1ccccc1 (centres unmarked) [compound 27, 27]
IC50 (TNKS2 ARC4 [1]; inhibitor): > 1000 µM | ΔTm ± SD (°C) (TNKS2 ARC4 [2]): -0.03 ± 0.11 °C

COc1cccc(C(=O)C2=C(O)C(=O)N(CCCN3CCOCC3)C2c2ccccc2)c1 (centres unmarked) [compound 32, 32]
IC50 (TNKS2 ARC4 [1]): > 1000 µM | ΔTm ± SD (°C) (TNKS2 ARC4 [2]): 0.23 ± 0.25 °C

O=C(C1=C(O)C(=O)N(CCCN2CCOCC2)C1c1ccc(F)cc1)c1ccc2c(c1)OCCO2 (centres unmarked) [compound 43, 43]
IC50 (TNKS2 ARC4 [1]): 114 µM | ΔTm ± SD (°C) (TNKS2 ARC4 [2]): 1.61 ± 0.37 °C

O=C(C1=C(O)C(=O)N(CCCN2CCOCC2)C1c1ccccc1)c1ccc2c(c1)OCCO2 (centres unmarked) [compound 42, 42]
IC50 (TNKS2 ARC4 [1]): 101 µM | ΔTm ± SD (°C) (TNKS2 ARC4 [2]): 2.26 ± 0.34 °C

O=C(C1=C(O)C(=O)N(CCc2ccccc2)C1c1ccccc1)c1ccc2c(c1)OCCO2 (centres unmarked) [compound 41, 41]
IC50 (TNKS2 ARC4 [1]; inhibitor): 65 µM | ΔTm ± SD (°C) (TNKS2 ARC4 [2]): 0.91 ± 0.31 °C

CCN(CC)CCCN1C(=O)C(O)=C(C(=O)c2ccc(OC)cc2)C1c1ccccc1 (centres unmarked) [compound 31, 31]
IC50 (TNKS2 ARC4 [1]): 136 µM | ΔTm ± SD (°C) (TNKS2 ARC4 [2]): 1.46 ± 0.52 °C

N=C(N)NCCCN1C(=O)C(O)=C(C(=O)c2ccc3c(c2)OCCO3)C1c1cccc(O)c1 (centres unmarked) [S5]
IC50 (TNKS2 ARC4 [1]): 121 µM | ΔTm ± SD (°C) (TNKS2 ARC4 [2]): 1.31 ± 0.17 °C

COc1ccc(C(=O)C2=C(O)C(=O)N(CCCN3CCOCC3)C2c2ccc(C)cc2)cc1OC (centres unmarked) [compound 30, 30]
IC50 (TNKS2 ARC4 [1]): > 1000 µM | ΔTm ± SD (°C) (TNKS2 ARC4 [2]): 0.12 ± 0.25 °C

COc1cccc(C(=O)C2=C(O)C(=O)N(CCCN3CCOCC3)C2c2ccc(C)cc2)c1 (centres unmarked) [compound 33, 33]
IC50 (TNKS2 ARC4 [1]): > 1000 µM | ΔTm ± SD (°C) (TNKS2 ARC4 [2]): 0.36 ± 0.33 °C

CCN(CC)CCN1C(=O)C(O)=C(C(=O)c2ccc3c(c2)OCCO3)C1c1ccccc1 (centres unmarked) [compound 39, 39]
IC50 (TNKS2 ARC4 [1]; inhibitor): 255 µM | ΔTm ± SD (°C) (TNKS2 ARC4 [2]): 1.05 ± 0.36 °C

COc1cc(C2C(C(=O)c3ccc4c(c3)OCCO4)=C(O)C(=O)N2CCCN2CCOCC2)ccc1O (centres unmarked) [compound 45, 45]
IC50 (TNKS2 ARC4 [1]; inhibitor): 78 µM | ΔTm ± SD (°C) (TNKS2 ARC4 [2]): 2.32 ± 0.33 °C

N=C(N)NCCCN1C(=O)C(O)=C(C(=O)c2ccc3c(c2)OCCO3)C1c1ccccc1 (centres unmarked) [S3]
IC50 (TNKS2 ARC4 [1]): 133 µM | ΔTm ± SD (°C) (TNKS2 ARC4 [2]): 1.20 ± 0.19 °C

Cc1cc(C(=O)C2=C(O)C(=O)N(CCCN(C)C)C2c2ccc(O)cc2)ccc1OC(C)C (centres unmarked) [compound 34, 34]
IC50 (TNKS2 ARC4 [1]): > 1000 µM | ΔTm ± SD (°C) (TNKS2 ARC4 [2]): -0.08 ± 0.41 °C

Cc1ccc(C2C(C(=O)c3ccc4c(c3)OCCO4)=C(O)C(=O)N2Cc2ccccc2)cc1 (centres unmarked) [compound 37, 37]
IC50 (TNKS2 ARC4 [1]): 71 µM | ΔTm ± SD (°C) (TNKS2 ARC4 [2]): 0.51 ± 0.31 °C

Cc1ccc(C2C(C(=O)c3ccc4c(c3)OCCO4)=C(O)C(=O)N2CCN(C)C)cc1 (centres unmarked) [compound 38, 38]
IC50 (TNKS2 ARC4 [1]; inhibitor): 493 µM | ΔTm ± SD (°C) (TNKS2 ARC4 [2]): 0.67 ± 0.28 °C

O=C(C1=C(O)C(=O)N(Cc2ccncc2)C1c1ccncc1)c1ccc2c(c1)OCCO2 (centres unmarked) [compound 44, 44]
IC50 (TNKS2 ARC4 [1]): > 1000 µM | ΔTm ± SD (°C) (TNKS2 ARC4 [2]): 0.21 ± 0.26 °C

COCCN1C(=O)C(O)=C(C(=O)c2ccc3c(c2)OCCO3)C1c1cccc(O)c1 (centres unmarked) [compound 35, 35]
IC50 (TNKS2 ARC4 [1]): 305 µM | ΔTm ± SD (°C) (TNKS2 ARC4 [2]): 0.82 ± 0.38 °C

O=C(C1=C(O)C(=O)N(CCCN2CCNCC2)C1c1cccc(O)c1)c1ccc2c(c1)OCCO2 (centres unmarked) [S2]
IC50 (TNKS2 ARC4 [1]): 302 µM | ΔTm ± SD (°C) (TNKS2 ARC4 [2]): 0.80 ± 0.16 °C

COCCCN1C(=O)C(O)=C(C(=O)c2ccc3c(c2)OCCO3)C1c1ccccc1 (centres unmarked) [compound 40, 40]
IC50 (TNKS2 ARC4 [1]; inhibitor): 360 µM | ΔTm ± SD (°C) (TNKS2 ARC4 [2]): 0.47 ± 0.31 °C

O=C(C1=C(O)C(=O)N(Cc2ccccc2)C1c1cccc(O)c1)c1ccc2c(c1)OCCO2 (centres unmarked) [compound 36, 36]
IC50 (TNKS2 ARC4 [1]): 23 µM | ΔTm ± SD (°C) (TNKS2 ARC4 [2]): 0.45 ± 0.25 °C
